According to patent US10208011B2, “Benzothiophene estrogen receptor modulators” (G1 Therapeutics, Inc., priority 2017, dated 2019):

What was measured:
[1] = molecular target: estrogen receptor α in MCF7 cells (Homo sapiens (Human), UniProt P03372); test: Estrogen Receptor (ER) Degradation Assay (In-Cell Western); type: cell-based; conditions: for IC50: 24 hours, In-Cell Western; for % Estrogen Receptor Remaining: vehicle set to 100%
Description: A screening strategy was implemented utilizing an In-Cell Western assay to measure their ability to degrade the estrogen receptor in vitro. MCF7 cells, which are estrogen receptor positive, were plated at a cell density of […] into black walled clear bottom 96-well plates. Cells were incubated in phenol red free Dulbecco's Modified Eagle Media (DMEM) supplemented with 8% charcoal-stripped fetal bovine calf serum for 24 hours in a humidified 37° C. incubator. Concentrated stock compounds were diluted to 10× in complete media. Compounds were added to the plated cells in a dose-dependent manner ranging from 1E-12 to 1E-05 M and incubated for an additional 24 hours at 37° C. Culture medium was removed from the culture plates by gentle inversion. Cells were fixed in 4% paraformaldehyde in 1× phosphate buffered saline-calcium magnesium free (PBS-CMF) for 15 minutes at room temperature, washed 3 times for 5 minutes each in 1×PBS-CMF. Cells were permeabilized in immunofluorescence (IF) blocking buffer (Cell Signaling #12411) containing 0.3% Triton X100. Cells were washed 3 times for 5 minutes each in 1×PBS-CMF and incubated in estrogen receptor α (D6R2W) rabbit primary antibody (Cell Signaling #13258) diluted 1:300 in IF antibody dilution buffer (Cell Signaling #12378). Cells were washed 3 times for 5 minutes each in 1×PBS-CMF and stained with goat anti-rabbit (Biotium #CF770) secondary antibody diluted 1:2000 in IF antibody dilution buffer and normalizing stain CellTag 700 diluted 1:500 (Licor #926-41090). ER protein expression was assessed by the Licor Odyssey CLx imaging system using Image Studio v5.2. Data is processed utilizing GraphPad Prism 7 by subtracting background from the vehicle and setting the vehicle to 100% ER activity, followed by comparing treated samples to vehicle. This procedure was used to produce the graph in FIG. 2, FIG. 3, FIG. 4, FIG. 5, FIG. 6, FIG. 7, and FIG. 8.
(§1) In the below table for the Estrogen Receptor Degradation Assay and the Human ERα Reporter Assay: […]

[2] = molecular target: human estrogen receptor (ERα) (Homo sapiens (Human), UniProt P03372); test: Human ERα Reporter Assay (Indigo Biosciences); type: cell-based; conditions: antagonist mode, 17β-estradiol 8E-10 M, 24 hours
Description: All reagents used in this assay was supplied in the Human ERα Reporter Assay by Indigo Biosciences # IB00401. In an effort to screen selective estrogen receptor degraders (SERDs), the Human ERα Reporter Assay, supplied by Indigo Biosciences, was utilized to quantify antagonist functional activity against the human estrogen receptor. Reporter cells were thawed at 37° C. and added to pre-warmed to 37° C. cell recovery medium (CRM). Stock concentration of 17β-estradiol was serially diluted in CRM. Diluted 17β-estradiol was added to CRM containing reporter cells resulting in a working concentration of 1.6 nM (2×). Cells plus 17β-estradiol were dispensed in a kit-supplied white walled 96-well plate. Concentrated stocks of test compounds were diluted to 2× working concentrations in cell screening medium (CSM). 2× concentrated compounds were added to the plated cells in a dose-dependent manner resulting in a final concentration range of 1E-11 to 1E-5 M and a final 17β-estradiol concentration of 8E-10 M. Assay plates were incubated for 24 hours in a humidified 37° C. incubator. Culture medium was removed from the assay plates by inversion. Detection substrate and buffer was warmed to room temperature, mixed thoroughly, and immediately added to the assay plates. Assay plates were incubated for 15 minutes at room temperature protected from light. Luminescence was measured in a Synergy HTX luminescence plate reader. Data is processed utilizing GraphPad Prism 7 by graphing the relative light units measured at each compound concentration. This procedure was used to produce the graph in FIG. 1, FIG. 9, FIG. 10, FIG. 11, FIG. 12, FIG. 13, and FIG. 14.
as §1

Chain of estrogen receptor α in MCF7 cells (P03372 whole entry): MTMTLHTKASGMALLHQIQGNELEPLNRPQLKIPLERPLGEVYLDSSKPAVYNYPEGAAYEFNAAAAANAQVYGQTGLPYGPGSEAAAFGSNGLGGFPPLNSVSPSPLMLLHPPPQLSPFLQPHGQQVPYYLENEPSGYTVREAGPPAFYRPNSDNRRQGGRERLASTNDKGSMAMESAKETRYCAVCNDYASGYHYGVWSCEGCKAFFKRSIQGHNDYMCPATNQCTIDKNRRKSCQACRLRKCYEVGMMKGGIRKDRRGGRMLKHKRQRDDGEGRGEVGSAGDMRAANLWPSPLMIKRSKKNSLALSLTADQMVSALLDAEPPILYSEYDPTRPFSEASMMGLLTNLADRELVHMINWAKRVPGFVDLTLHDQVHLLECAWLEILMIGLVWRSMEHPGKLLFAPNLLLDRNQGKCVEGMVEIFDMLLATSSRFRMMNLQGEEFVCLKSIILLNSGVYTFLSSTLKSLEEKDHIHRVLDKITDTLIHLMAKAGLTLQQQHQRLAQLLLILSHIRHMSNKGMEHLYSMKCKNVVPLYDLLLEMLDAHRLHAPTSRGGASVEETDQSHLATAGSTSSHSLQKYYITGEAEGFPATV
Chain of human estrogen receptor (ERα) (P03372 whole entry): as above

Compound | IC50 [1] [nM] | % Estrogen Receptor Remaining [1] | IC50 [2] [nM]
Cc1cc(F)cc(C)c1C(=O)c1sc2cc(O)ccc2c1Oc1ccc(CCNC2CCCCC2)cc1 [Compound 110, (3-(4-(2-(cyclohexylamino)ethyl)phenoxy)-6-hydroxybenzo[b]thiophen-2-yl)(4-fluoro-2,6-dimethylphenyl)methanone] | < 1000 | *** (*** denotes 41-70% Estrogen Receptor remaining) | < 1000
CCC(CC)NCCc1ccc(Oc2c(C(=O)c3c(C)cc(F)cc3C)sc3cc(O)ccc23)cc1 [Compound 109, (4-fluoro-2,6-dimethylphenyl)(6-hydroxy-3-(4-(2-(pentan-3-ylamino)ethyl)phenoxy)benzo[b]thiophen-2-yl)methanone] | < 1000 | *** (*** denotes 41-70% Estrogen Receptor remaining) | < 1000
Cc1cc(F)cc(C)c1C(=O)c1sc2cc(O)ccc2c1Oc1ccc(CN(C)C)cc1 [Compound 114, (3-(4-((dimethylamino)methyl)phenoxy)-6-hydroxybenzo[b]thiophen-2-yl)(4-fluoro-2,6-dimethylphenyl)methanone] | < 1000 | ** (** denotes 71-90% Estrogen Receptor remaining) | < 1000
Cc1cc(F)cc(C)c1C(=O)c1sc2cc(O)ccc2c1-c1ccc(OCCN2CCC(CF)CC2)cc1 [Compound 124, (4-fluoro-2,6-dimethylphenyl)(3-(4-(2-(4-(fluoromethyl)piperidin-1-yl)ethoxy)phenyl)-6-hydroxybenzo[b]thiophen-2-yl)methanone] | < 1000 | *** (*** denotes 41-70% Estrogen Receptor remaining) | < 50000
CCNCCc1ccc(CN(CC)c2cc(OC)ccc2[C@@H]2CCc3cc(O)ccc3C2)cc1.Cl.Cl (stereo in doubt) [RAD- 1901, reference compound] | – | **** (**** denotes 0-40% Estrogen Receptor remaining) | –
Cc1cc(F)cc(C)c1C(=O)c1sc2cc(O)ccc2c1-c1ccc(OCCN2CCC(CF)C2)cc1 (stereo not shown) [Compound 123, (4-fluoro-2,6-dimethylphenyl)(3-(4-(2-(3-(fluoromethyl)pyrrolidin-1-yl)ethoxy)phenyl)-6-hydroxybenzo[b]thiophen-2-yl)methanone] | < 1000 | *** (*** denotes 41-70% Estrogen Receptor remaining) | < 50000
Cc1cc(F)cc(C)c1C(=O)c1sc2cc(O)ccc2c1Oc1ccc(CCN2CC[C@H](C)C2)cc1 [Compound 118, (S)-(4-fluoro-2,6-dimethylphenyl)(6-hydroxy-3-(4-(2-(3-methylpyrrolidin-1-yl)ethyl)phenoxy)benzo[b]thiophen-2-yl)methanone] | < 1000 | *** (*** denotes 41-70% Estrogen Receptor remaining) | < 1000
Cc1cc(F)cc(C)c1C(=O)c1sc2cc(O)ccc2c1Oc1ccc(OCCN2CCCC2)cc1 [Compound 108, (4-fluoro-2,6-dimethylphenyl)(6-hydroxy-3-(4-(2-(pyrrolidin-1-yl)ethoxy)phenoxy)benzo[b]thiophen-2-yl)methanone] | – | *** (*** denotes 41-70% Estrogen Receptor remaining) | –
Cc1cc(F)cc(C)c1C(=O)c1sc2cc(O)ccc2c1Oc1ccc(CCN)cc1 [Compound 104, (3-(4-(2-aminoethyl)phenoxy)-6-hydroxybenzo[b]thiophen-2-yl)(4-fluoro-2,6-dimethylphenyl)methanone] | < 1000 | *** (*** denotes 41-70% Estrogen Receptor remaining) | < 1000
Cc1cc(F)cc(C)c1C(=O)c1sc2cc(O)ccc2c1Oc1ccc(C2CCCNC2)cc1 (stereo not shown) [Compound 103, (4-fluoro-2,6-dimethylphenyl)(6-hydroxy-3-(4-(piperidin-3-yl)phenoxy)benzo[b]thiophen-2-yl)methanone] | < 50000 | **** (**** denotes 0-40% Estrogen Receptor remaining) | < 1000
Cc1cc(F)cc(C)c1C(=O)c1sc2cc(O)ccc2c1Oc1ccc(OCCN2CCCCC2)cc1 [Compound 106, (4-fluoro-2,6-dimethylphenyl)(6-hydroxy-3-(4-(2-(piperidin-1-yl)ethoxy)phenoxy)benzo[b]thiophen-2-yl)methanone] | – | *** (*** denotes 41-70% Estrogen Receptor remaining) | –
Cc1cc(F)cc(C)c1C(=O)c1sc2cc(O)ccc2c1Oc1ccc(CN)cc1 [Compound 115, (3-(4-(aminomethyl)phenoxy)-6-hydroxybenzo[b]thiophen-2-yl)(4-fluoro-2,6-dimethylphenyl)methanone] | < 1000 | *** (*** denotes 41-70% Estrogen Receptor remaining) | < 1000
CCNCCc1ccc(Oc2c(C(=O)c3c(C)cc(F)cc3C)sc3cc(O)ccc23)cc1 [Compound 100, (3-(4-(2-(ethylamino)ethyl)phenoxy)-6-hydroxybenzo[b]thiophen-2-yl)(4-fluoro-2,6-dimethylphenyl)methanone] | < 1000 | **** (**** denotes 0-40% Estrogen Receptor remaining) | < 1000
Cc1cc(F)cc(C)c1C(=O)c1sc2cc(O)ccc2c1-c1ccc(OCCN2CC(CF)C2)cc1 [Compound 120, (4-f1uoro-2,6-dimethylphenyl)(3-(4-(2-(3-(fluoromethyl)azetidin-1-yl)ethoxy)phenyl)-6-hydroxybenzo[b]thiophen-2-yl)methanone] | < 1000 | *** (*** denotes 41-70% Estrogen Receptor remaining) | < 50000
CCC(C)NCCc1ccc(Oc2c(C(=O)c3c(C)cc(F)cc3C)sc3cc(O)ccc23)cc1 (stereo not shown) [Compound 111, (3-(4-(2-(sec-butylamino)ethyl)phenoxy)-6-hydroxybenzo[b]thiophen-2-yl)(4-fluoro-2,6-dimethylphenyl)methanone] | < 1000 | **** (**** denotes 0-40% Estrogen Receptor remaining) | < 1000
Cc1cc(F)cc(C)c1C(=O)c1sc2cc(O)ccc2c1Oc1ccc(CCN2CC(CF)C2)cc1 [Compound 117, (4-fluoro-2,6-dimethylphenyl)(3-(4-(2-(3-(fluoromethyl)azetidin-1-yl)ethyl)phenoxy)-6-hydroxybenzo[b]thiophen-2-yl)methanone] | < 1000 | *** (*** denotes 41-70% Estrogen Receptor remaining) | < 1000
Cc1cc(F)cc(C)c1C(=O)c1sc2cc(O)ccc2c1Oc1ccc(N2CCCCC2)cc1 [Compound 101, (4-fluoro-2,6-dimethylphenyl)(6-hydroxy-3-(4-(piperidin-1-yl)phenoxy)benzo[b]thiophen-2-yl)methanone] | < 1000 | *** (*** denotes 41-70% Estrogen Receptor remaining) | < 1000
CNCc1ccc(Oc2c(C(=O)c3c(C)cc(F)cc3C)sc3cc(O)ccc23)cc1 [Compound 113, (4-fluoro-2,6-dimethylphenyl)(6-hydroxy-3-(4-((methylamino)methyl)phenoxy)benzo[b]thiophen-2-yl)methanone] | < 1000 | *** (*** denotes 41-70% Estrogen Receptor remaining) | < 1000
Cc1cc(F)cc(C)c1C(=O)c1sc2cc(O)ccc2c1Oc1ccc(OCCN2CCCCCC2)cc1 [Compound 107, (3-(4-(2-(azepan-1-yl)ethoxy)phenoxy)-6-hydroxybenzo[b]thiophen-2-yl)(4-fluoro-2,6-dimethylphenyl)methanone] | – | *** (*** denotes 41-70% Estrogen Receptor remaining) | –
